Values joined by “and” are separate entries in the source; they are usually repeats but may differ in a detail not shown here. Equal entries are not always repeated.
Conditions: Liquid, Calculated from knudsen effusion weight loss

[Ag+].[Br-] [silver bromide]
Conditions	vapor or sublimation pressure
829.9 K	0.000109 kPa [middle of 4 runs]
849.9 K	0.000184 kPa [middle of 4 runs]
869.9 K	0.000316 kPa [middle of 4 runs]
889.9 K	0.00057 kPa and 0.000464 kPa and 0.000529 kPa
890 K	0.000602 kPa
909.9 K	0.000855 kPa and 0.000958 kPa and 0.000842 kPa
910 K	0.001143 kPa
929.9 K	0.001712 kPa [middle of 4 runs]
